In patent US12622965B2, “Therapeutical tools and methods using temperature-sensitive receptors for treating blindness” (FRIEDRICH MIESCHER INSTITUTE FOR BIOMEDICAL RESEARCH, priority 2020, dated 2026):

Test system: human retina (ONL, INL, GCL cells)
Experiment: two-photon acousto-optic calcium imaging of NIR responses in ex vivo human retina
Type: cell-based
Text: High-speed three-dimensional acousto-optic calcium imaging of neuronal network activity permits observation of response propagation from photoreceptors through the retina. To detect NIR light driven responses in the human retina, the inventors deposited nanorods (Abs 915 nm) over the photoreceptor side of the retina and performed two-photon calcium imaging of individual cells in the outer nuclear layer (ONL), which hosts photoreceptors, the inner nuclear layer (INL), which hosts horizontal, bipolar and amacrine cells, and the ganglion cell layer (GCL) which hosts ganglion and amacrine cells. To record calcium signals, the fluorescent calcium dye Oregon Green 488 BAPTA-1 (OGB-1) was electroporated into the cells. […] In cells of the INL and GCL layers, bidirectional changes in the calcium signal indicate activation of excitatory and inhibitory retinal pathways. More cells responded in the GCL than in the ONL, reflecting convergent retinal circuit organization (Chi Squared Test, P=0.0006; GCL, n=41 responding neurons, n=83 total neurons, 49.4%; ONL, n=16 responding photoreceptors, n=74 total photoreceptors, 21.6%). There was no significant difference in number of NIR light responding cells between INL and GCL (Chi Squared Test, P=0.89; INL, n=46 responding neurons, n=93 total neurons, 49.5%).
Human retinal tissue was obtained after corneal tissue harvest from adult multi-organ donors with no reported history of eye disease, n=2 eyes from n=2 donors. After cornea isolation, the iris, lens, and vitreous were removed and the retina was submerged in flowing Ames' medium (Sigma, A1420) saturated with 95% O2 and 5% CO2. […] Samples used for tissue culture were of mid-peripheral origin, midway between the fovea and the anterior retinal border. For organotypic retinal culture, 4×4 mm retinal pieces were isolated and placed photoreceptor-side-up on polycarbonate membranes inserts (Corning, 3412). The cultures were maintained at 37° C. and 5% CO2 in DMEM/F12 medium (Thermo Fisher Scientific), supplemented with 0.1% bovine serum albumin (BSA), 10 μM O-acetyl-L-carnitine hydrochloride, 1 mM fumaric acid, 0.5 mM galactose, 1 mM glucose, 0.5 mM glycine, 10 mM HEPES, 0.05 mM mannose, 13 mM sodium bicarbonate, 3 mM taurine, 0.1 mM putrescine dihydrochloride, 0.35 μM retinol, 0.3 μM retinyl acetate, 0.2 μM (+)-α-tocopherol, 0.5 mM ascorbic acid, 0.05 μM sodium selenite, 0.02 μM hydrocortisone, 0.02 μM progesterone, 1 μM insulin, 0.003 μM 3,3′,5-triiodo-L-thyronine, 2 000 U penicillin and 2 mg streptomycin (Sigma). For AAV infection, 40 μL of virus was applied per retinal explant 4-5 days after plating. The culture medium was renewed every 48 hours. Light responses were recorded from samples 8 weeks post-mortem. […]

[1] = nanorods (Abs 915 nm) on photoreceptor side, 8 weeks post-mortem

**Q.** What does the source list for “TRPV1.465-6x-His: rat TRPV1 channel with 6x-His epitope tag inserted in the first extracellular loop after amino acid 465; delivered by AAV”?
**A.** NIR light responding cells in the GCL [1]: 49.4%; NIR light responding cells in the INL [1]: 49.5%; NIR light responding photoreceptors in the ONL [1]: 21.6%; NIR light-evoked activation in retinal explants (rTRPV1 transduced explants (n=3), nanorods (Abs 915 nm)): NIR light-evoked activation could be detected
